Patent US5811568A, “Process for the preparation of mono- and bis(phosphocholine) derivatives which have antifungal activity” (Shaman Pharmaceuticals, Inc., priority 1994, dated 1998)

Key:
Type in all cases: cell-based
Candida albicans = test: in vitro antifungal activity, minimum inhibitory concentration (MIC), Candida albicans
Excerpt: (§1) The antifungal activity of two exemplary phosphocholines prepared using the method of the invention, i.e., (1) synthetic 1,22-Bis-[2-(trimethylammonium)ethylphosphatyl] docosane obtained using the stepwise synthetic route and, (2) synthetic 1,22-Bis-[2-(trimethylammonium)ethyl-phosphatyl] docosane obtained using the one-pot one step route, as well as the antifungal activity of (3) the natural product isolated from Irbachia alata identified as 1,22-Bis-[2-(trimethylammonium)ethyl-phosphatyl] docosane (see International Application filed Oct. 8, 1993 was determined in vitro using three fungal cultures--Candida albicans (CA), Cryptococcus neoformans (CN), and Aspergillus fumigatus (CF). The method used to determine in vitro antifungal activity is described in McGinnis, M. R., Laboratory Handbook of Medical Mycology, Academic Press, New York, London, p 412-416 (1980); and Drouget, E.; Dupont, B.; Improvisi, L.; Vivian, M. A.; and Tortorano, A. M.; "Disc agar difusion and microplate automatized techniques for in vitro evaluation of antifungal agents on yeast and sporulated pathogenic fungi" in In Vitro and In Vivo Evaluation of Antifungal Agents, Eds. Iwata, K. and Vanden Bossche, H., Elsevier Science Publishers, New York, Oxford, p 303 (1986). The minimum inhibitory concentration (MIC) for each is summarized in Table I. Partial inhibition of the fungus of between 25% to 75% was also measured. A description of the partial inhibition measurement can be found in R. L. Stiller, et al, The Journal of Infectious Diseases, 147, No 6 (1983).

Aspergillus fumigatus [1] = test: in vitro antifungal activity, minimum inhibitory concentration (MIC), Aspergillus fumigatus
Excerpt: as §1

Cryptococcus neoformans = test: in vitro antifungal activity, minimum inhibitory concentration (MIC), Cryptococcus neoformans
Excerpt: as §1

Aspergillus fumigatus [2] = test: partial inhibition of the fungus, Aspergillus fumigatus; conditions: in vitro, partial inhibition of between 25% to 75%
Excerpt: as §1, with “The minimum inhibitory concentration (MIC) for each is summarized in Table I. Partial inhibition of the fungus of between 25% to 75% was also measured. A description of the partial inhibition measurement can be found in R. L. Stiller, et al, The Journal of Infectious Diseases, 147, No 6 (1983).” left out

Row | Structure (SMILES) | MIC (Candida albicans) [µg/mL] | MIC (Aspergillus fumigatus [1]) [µg/mL] | MIC CN (Cryptococcus neoformans) [µg/mL] | MIC CA (Candida albicans) [µg/mL] | MIC AF (Aspergillus fumigatus [1]) [µg/mL] | Partial inhibition AF (Aspergillus fumigatus [2]) [µg/mL]
1 | C[N+](C)(C)CCOP(=O)([O-])OCCCCCCCCCCCCCCCCCCCCCCOP(=O)([O-])OCC[N+](C)(C)C [1,22-Bis [2-(trimethylammonium)ethylphosphatyl] docosane] | 1.25 | 0.08 |  |  |  | 
2 | C[N+](C)(C)CCOP(=O)([O-])OCCCCCCCCCCCCCCCCCCCCCCOP(=O)([O-])OCC[N+](C)(C)C [Isolated Natural Product 1,22-Bis[2[(trimethyl ammonium)ethy] [1,22-Bis-[2-(trimethylammonium)ethyl-phosphatyl] docosane] |  |  | < 0.04 | 1.25 | 0.08 | 
3 | C[N+](C)(C)CCOP(=O)([O-])OCCCCCCCCCCCCCCCCCCCCCCOP(=O)([O-])OCC[N+](C)(C)C [Synthetic 1,22-Bis[2-(trimethyl-ammonium)ethyl phosphatyl] d] [1,22-Bis [2-(trimethylammonium)ethylphosphatyl] docosane] |  |  | < 0.1 | 0.8 | < 0.1 | 0.1
4 | C[N+](C)(C)CCOP(=O)([O-])OCCCCCCCCCCCCCCCCCCCCCCOP(=O)([O-])OCC[N+](C)(C)C [Synthetic 1,22-Bis[2-trimethyl-ammonium)ethyl phosphatyl] do] [1,22-Bis [2-(trimethylammonium)ethylphosphatyl] docosane] |  |  | 0.08 |  |  | 0.02
